In a melting point compilation (Tetko et al.; mined from patent text by program, amines drawn as free bases though some values may be those of a salt) one finds melting point data, which are given here for 61 compounds.

The structures appear in SMILES notation.

`CCOC(=S)Nc1nc(OCc2ccc(F)cc2)ncc1F` came in with a melting point of 109 to 119 °C.

`CCOC(=O)Cc1csc(-c2ncccc2O)n1`: the melting point lay within 85.5 to 86.5 °C.

With `CC1CC(=O)c2c(C(=O)Nc3cccnc3)c[nH]c2C1` (stereo unspecified), the melting point is 225 to 227 °C.

The compound `COc1ccc2c(c1)C(c1ccccc1)NC(=O)N2CC1CC1` (stereo unspecified) showed a melting point of 133 °C.

In the case of `CN1CC[C@@H](c2c(O)cc(O)c3c(=O)cc(-c4ccc(N)cc4Br)oc23)[C@@H]1CO`, the melting point came out at 208 °C.

Regarding `NC(=O)CN1CC(OCc2ccccc2)=CC1=O`, the melting point lay in the range of 174 to 176 °C.

`CC(CN1CCCC1)N1c2ccccc2Sc2ccc(C3=NC4CCCCC4N3)cc21` (racemic): the melting point was 109 °C.

As for `CCCCOC(=O)Nc1ccc2cnn(Cc3ccc(C(=O)NS(=O)(=O)c4ccccc4)cc3OC)c2c1`, the melting point is 153 to 154 °C.

In turn, `COC(=S)c1ccc(-c2ccccc2)c(S(C)(=O)=O)c1` registered a melting point of 155 to 156 °C.

Compound `CCSc1c(Nc2c(C)c(=O)c2=O)ccc2[nH]cc(CCCO)c12` showed a melting point of 119 °C.

`O=C(NO)c1ccc(CNC(=O)c2[nH]c(-c3ccoc3)cc2-c2ccc(F)cc2)cc1` displayed a melting point of 162 to 164 °C.

For the compound `CC(C)(C)c1ccc(CCOc2ncnc3nccnc23)cc1`, the melting point came to 149 °C.

`O=C(O)COc1cccc(CCc2nc(-c3ccccc3)c(-c3ccccc3)s2)c1` displayed a melting point of 118 to 120 °C.

In the case of `CCC1(CCCCN2CCN(c3cccc(Cl)c3)CC2)C(=O)Nc2ccc(Cl)cc21` (stereo unspecified), the melting point lay within 139 to 142 °C.

With `O=C(O)CS(=O)CCCCCn1nc(-c2ccccc2)c(-c2ccccc2)c1-c1ccccc1` (stereo unspecified), the melting point lay in the range of 129 to 130 °C.

Regarding `O=C(O)CCc1ccc(OCCc2ccccc2)cc1`, the melting point is 91 to 92 °C.

`O=C(C=CC=Cc1ccccc1)C=Cc1ccc([N+](=O)[O-])cc1` registered a melting point of 168 to 170 °C.

As to `OCCNc1cc(N2CCCC2)nc(N2CCCC2)n1`, the melting point was in the range of 150 to 152 °C.

With `Cc1c(C)c2c(c(C)c1OCc1ccccc1)C(=O)C(C)(C)O2`, the melting point was in the range of 114 to 115 °C.

In turn, `CC(=O)Nc1nc2c(s1)-c1nn(C(=O)c3ccccc3)cc1CC2` returned a melting point of 266 to 267 °C.

The compound `O=C(OC(=O)c1cccnc1)c1cccnc1` displayed a melting point of 162 to 164 °C.

Compound `Cc1cc(OCC(F)(F)F)c([N+](=O)[O-])c(OCC(F)(F)F)n1` displayed a melting point of 72.8 to 73.2 °C.

Take `COc1ccc(-c2nc(N(C)C)c3c(C)c(C#N)sc3n2)cc1OC`: the melting point was in the range of 198 to 200 °C.

In turn, `COc1c(C)cc(C2=C(c3ccc(S(C)(=O)=O)cc3)OC(C)(C)C2=O)cc1C` showed a melting point of 130 to 131 °C.

In the case of `COC(=O)N(CC(=O)Nc1ccc(S(N)(=O)=O)cc1)c1ccccc1`, the melting point is 196 to 199 °C.

Turning to `CCCOCCOc1ccc(-c2ccc3c(c2)C=C(C(=O)Nc2ccc(CN(C)C4CCOCC4)cc2)CCS3(=O)=O)cc1OCC`, the melting point lay in the range of 171 to 172 °C.

`O=C(O)c1cccc(Oc2cccc(-c3nn(Cc4ccc(C(F)(F)P(=O)(O)O)c(Cl)c4)c(=Nc4ccc(Cl)c(Cl)c4)s3)c2)c1` displayed a melting point of 212 to 215 °C.

`CCCOc1ccc(N(C)C)cc1-c1ncc(-c2nnn[nH]2)c(=O)[nH]1` returned a melting point of 258 to 259 °C.

In the case of `O=C(c1ccccc1)c1cc(Cl)ccc1-n1c(CN2C(=O)c3ccccc3C2=O)nnc1CN1C(=O)c2ccccc2C1=O`, the melting point lay within 250 to 251 °C.

In turn, `O=C(O)CCc1ccc(OCCSCCO)cc1` came in with a melting point of 64 to 65 °C.

Take `CC(C)CCNC(Nc1cc(C(F)(F)F)cc(C(F)(F)F)c1)=C(C#N)C(=O)OC(C)(C)C`: the melting point was 128 to 129 °C.

Turning to `CC(C)N(O)C(=O)c1c([Si](C)(C)C)sc2ccccc12`, the melting point lay within 115 to 118 °C.

As to `CC1Cc2ccc(Cl)cc2C(c2ccc([N+](=O)[O-])cc2)=NN1` (stereo unspecified), the melting point lay in the range of 132 to 135 °C.

In the case of `CC(C)(C)c1nc(Cl)n(-c2c(Cl)cc(Cl)cc2Cl)n1`, the melting point fell in the range of 98 to 98.5 °C.

`COc1cc2c(cc1OC)C(NC=O)C(c1ccc3c(c1)OCO3)CC2` (stereo unspecified): the melting point was in the range of 150 to 190 °C.

For `CC(C)(C)c1ccc(C(=O)Nc2ccc(N)cc2)cc1`, the melting point fell in the range of 111 to 113 °C.

`COC(=O)CCc1ccc(OC2Cc3ccccc3C2)cc1` came in with a melting point of 73 to 74 °C.

`O=C1O[C@@H](Cn2ccnn2)CN1c1ccc(-c2ccc(C3=NOC(CS(=O)(=O)CCO)C3)nc2)c(F)c1` (stereo partly specified) displayed a melting point of 210 °C.

The compound `Clc1ccc(-c2nc3cccnc3[nH]2)cc1` had a melting point of 305 to 308 °C.

`O=C(NC1CCOCC1)c1ccc(-c2ccc3nnn(Cc4ccc5ncccc5c4)c3n2)cc1`: the melting point is 202 to 205 °C.

With `CCOC(=O)c1cnc2ccc3nc(Cl)sc3c2c1Cl`, the melting point fell in the range of 143 to 146 °C.

Compound `O=C1CC2(CCc3cc4ccccc4n3C2)C(=O)N1` (stereo unspecified) showed a melting point of 208 to 210 °C.

Turning to `COc1cc2cc(c1Cl)N(C)C(=O)CC(OC(=O)C(C)N(C)C(=O)C(C)C)C1(C)OC1C(C)C1CC(O)(NC(=O)O1)C(OC)C=CC=C(C)C2OC` (stereo unspecified), the melting point was 176 to 179 °C.

With `COCN(C(=O)Cc1ccc(Cl)cc1)C(c1cncnc1C(F)(F)F)C(C)C` (stereo unspecified), the melting point was in the range of 142 to 145 °C.

Compound `COc1cc(I)c(C=O)cc1OC(C)C` showed a melting point of 75 to 76 °C.

Regarding `CCOCc1nc2c(N)nc3ccccc3c2n1Cc1cc(-c2cccnc2)no1`, the melting point fell in the range of 240 to 242 °C.

In turn, `CCCN[C@@H](Cc1ccc(OCCNC(=O)c2ccc(-c3ccccn3)cc2)cc1)C(=O)O` displayed a melting point of 242 to 244 °C.

`COC(=O)Cn1c(C(=O)Nc2nc(-c3cc(OC)c(C)cc3OC)c(CCC3CCCCC3)s2)cc2cc(C)cc(C)c21` showed a melting point of 154 to 162 °C.

In turn, `COc1cc(OC)c2c(=O)[nH]c(-c3cc(C)c(OCCN4C(=O)CN(C(C)C)C4=O)c(C)c3)nc2c1` showed a melting point of 219 to 221 °C.

In turn, `Cn1nc2c(N)nc3ccccc3c2c1CCCCCl` displayed a melting point of 188 to 189 °C.

`CCOC(=O)C(SC)=C(O)C1C(C(=O)O)C1(C)C` (stereo unspecified) yielded a melting point of 114 °C.

`Cc1cc(Cl)ccc1OCC(=O)N1Cc2ccc(C(=O)C(Cl)(Cl)Cl)n2Cc2ccccc21` returned a melting point of 156 to 158 °C.

In the case of `CCOC(=O)CCSc1nnsc1-c1ccc(Cl)cc1`, the melting point is 71.5 to 73.5 °C.

With `CC(=NNc1ccc(-c2ccc(=O)n(C)n2)cc1)c1ccc(O)cc1O`, the melting point was in the range of 263 to 268 °C.

The compound `O=c1ccc2cc(OC3O[C@H](CO)[C@@H](O)[C@H](O)[C@H]3O)c(OCc3ccccc3)cc2o1` (stereo partly specified) gave a melting point of 184 to 186 °C.

`COc1cc(CCC2OCCO2)ccc1OCc1nc(-c2ccccc2)oc1C`: the melting point is 90 to 91 °C.

Consider `Cc1ccc(-c2cc(C(F)(F)F)n3ncc(-c4ccncc4)c3n2)cc1C(F)(F)F`, for which the melting point turned out to be 218 °C.

In turn, `COc1ccc2c(c1)C=C(c1ccc3c(c1)NC(=O)CO3)C(c1ccccc1)O2` (stereo unspecified) registered a melting point of 200 °C.

The compound `N#Cc1cccc(-c2nnc(-c3cccnc3)o2)c1` returned a melting point of 170 to 174 °C.

As for `Cc1ccc(CCCc2c(C)nc(N)nc2N)cc1`, the melting point was in the range of 210 to 213 °C.

Compound `c1cc(CN2CCCCC2)ccc1CN1CCCCC1` returned a melting point of 86 to 88 °C.

As a reminder, the melting point is the temperature, or range, at which the solid turns liquid.
